Like-named read-outs stand apart in the source and are kept apart here.
Columns and labels:
[1] = tested on: HBV; test: Anti-HBV antiviral assay: extracellular HBV virion DNA by Southern blot in HepG 2.2.15 cultures; format: cell-based, hepatitis B virus
Method: Confluent cultures of chronic HBV producing cell line HepG 2.2.15 in 96-well tissue culture plates in RPMI 1640 medium with 2% fetal bovine serum were used for the antiviral analysis of castanospermine esters (see Korba and Gerin, Antivir. Res. 19:55-70, 1992).
Extracellular HBV nucleic acid levels were measured 24 hours after the last treatment by Southern blot hybridization (quantified via densitometry using equipment and methods known in the art) as a measure of the number of HBV virions produced.
Based on the hybridization analysis, about 1.0 pg extracellular HBV DNA/ml of culture medium is roughly equivalent to about 3×10^5 viral particles/ml. Values ±standard deviations (SD) were calculated by linear regression analysis using data combined from all treated cultures. SDs were calculated using the standard error of regression generated from the linear regression analyses.

[2] = Cytotoxicity, neutral red dye uptake; conditions: human
Method: (§1) Cytotoxicity analyses were also performed in order to assess whether any observed antiviral effects were due to a general effect on cell viability. This analysis was performed on 96-well plates seeded at the same time and with the identical pool of stock cells used for the antiviral assay described in Example 1. […] Cellular uptake of neutral red dye was used to determine the relative level of toxicity 24 hours after the final treatment. A cell that is viable will take up the neutral red dye, while a dead cell will not. The absorbance of internalized dye at 510 nm (A510) was used for quantitative analysis. Values are presented as a percentage of the average A510 values (±standard deviation, SD) in 9 separate cultures of untreated cells on the same plate.
(§2) The EC90 and CC50 values were used to calculate a Selectivity Index (SI, CC50/EC90) because at least a […] reduction in HBV levels is considered as having achieved statistical significance in this assay (see Korba & Gerin, Antiviral Res. 19:55-70,1992).

[3] = tested on: HepG 2.2.15; test: Cytotoxicity, neutral red dye uptake; conditions: for Cytotoxicity - Neutral Red Dye Uptake: 24 hours after final treatment
Method: as §1, §2

[4] = Hepatitis B virus, HepG2.2.15, Table 5, monotherapy, or celgosivir concentration in combination with ADV

Structure (SMILES): CC(C)(C)C(=O)OCOP(=O)(COCCn1cnc2c(N)ncnc21)OCOC(=O)C(C)(C)C [ADV, adefovir dipivoxil]
- HBV Virion DNA Levels ([1]; 0.3 μM ADV, untreated cells 121 pg/mL): 121 ± 13 pg/mL culture medium
- HBV Virion DNA Levels ([1]; 1.0 μM ADV, untreated cells 121 pg/mL): 55 ± 4 pg/mL culture medium
- HBV Virion DNA Levels ([1]; 3.0 μM ADV, untreated cells 121 pg/mL): 11 ± 2 pg/mL culture medium
- HBV Virion DNA Levels ([1]; 10 μM ADV, untreated cells 121 pg/mL): 3 ± 1 pg/mL culture medium
- EC50 ([1]; Hepatitis B virus, HepG2.2.15, Table 3, concentration giving 2-fold reduction in HBV DNA vs untreated cultures, read-out: EC50): 950 ± 105 nM
- EC90 ([1]; Hepatitis B virus, HepG2.2.15, Table 3, concentration giving 10-fold reduction in HBV DNA vs untreated cultures, read-out: EC90): 2800 ± 100 nM
- EC50 ([1]; Hepatitis B virus, HepG2.2.15, Table 5, monotherapy, or celgosivir concentration in combination with ADV, read-out: EC50): 1000 ± 100 nM
- EC90 ([1]; Hepatitis B virus, HepG2.2.15, Table 5, monotherapy, or celgosivir concentration in combination with ADV, read-out: EC90): 3000 ± 100 nM
- CC50 [2]: 0.468 ± 0.017 mM
- Cytotoxicity - Neutral Red Dye Uptake ([3]; 30 μM (combinations: dose of celgosivir)): 100% ± 2 % of Control
- Cytotoxicity - Neutral Red Dye Uptake ([3]; 100 μM (combinations: dose of celgosivir)): 98% ± 1 % of Control
- Cytotoxicity - Neutral Red Dye Uptake ([3]; 300 μM (combinations: dose of celgosivir)): 73% ± 2 % of Control
- Cytotoxicity - Neutral Red Dye Uptake ([3]; 1000 μM (combinations: dose of celgosivir)): 10% ± 1 % of Control

Structure (SMILES): CCCC(=O)O[C@H]1CN2CC[C@H](O)[C@@H]2[C@@H](O)[C@@H]1O [Celgosivir, [1S-(1α,6β,7α,8β,8aβ)]-octahydro-1,6,7,8-indolizinetetrol 6-butanoate]
- HBV Virion DNA Levels ([1]; 15 μM (first panel), 9 daily doses, untreated cells 121 pg/mL): 113 ± 9 pg/mL culture medium
- HBV Virion DNA Levels ([1]; 15 μM celgosivir (third panel; combinations plus ADV at the molar ratio)): 111 ± 8 pg/mL culture medium
- HBV Virion DNA Levels ([1]; 50 μM (first panel), 9 daily doses, untreated cells 121 pg/mL): 56 ± 4 pg/mL culture medium
- HBV Virion DNA Levels ([1]; 50 μM celgosivir (third panel; combinations plus ADV at the molar ratio), assay sensitivity 0.1 pg/mL): 53 ± 6 pg/mL culture medium
- HBV Virion DNA Levels ([1]; 150 μM (first panel), 9 daily doses, untreated cells 121 pg/mL): 17 ± 2 pg/mL culture medium
- HBV Virion DNA Levels ([1]; 150 μM celgosivir (third panel; combinations plus ADV at the molar ratio), assay sensitivity 0.1 pg/mL): 16 ± 2 pg/mL culture medium
- HBV Virion DNA Levels ([1]; 300 μM, 9 daily doses, extracellular, 24 hours after last treatment, untreated cells 121 pg/mL): 8 ± 1 pg/mL culture medium
- EC50 ([1]; Table 3, concentration giving 2-fold reduction in HBV DNA vs untreated cultures, read-out: EC50): 28000 ± 1400 nM
- EC90 ([1]; Table 3, concentration giving 10-fold reduction in HBV DNA vs untreated cultures, read-out: EC90): 158000 ± 22000 nM
- EC50 ([1]; Table 5, monotherapy, or celgosivir concentration in combination with ADV, read-out: EC50): 24000 ± 1200 nM
- EC90 ([1]; Table 5, monotherapy, or celgosivir concentration in combination with ADV, read-out: EC90): 147000 ± 15000 nM
- HBV virion production by the 2.2.15 cells, in words ([1]; summary of Tables 2 and 3): caused a reduction in HBV virion production
- CC50 ([3]; Table 5, 2-fold reduction in neutral red dye uptake, value for the drug named, >1000 = highest concentration tested): > 1 mM

Structure (SMILES): Nc1ccn([C@@H]2CS[C@H](CO)O2)c(=O)n1 [Compound 3TC, (−)2′,3′-dideoxy, 3′-thiacytidine]
- EC50 ([1]; Hepatitis B virus, HepG2.2.15, Table 3, concentration giving 2-fold reduction in HBV DNA vs untreated cultures): 58 ± 4 nM
- EC90 ([1]; Hepatitis B virus, HepG2.2.15, Table 3, concentration giving 10-fold reduction in HBV DNA vs untreated cultures): 177 ± 15 nM
- EC50 [1, 4]: 58 ± 4 nM
- EC90 [1, 4]: 177 ± 15 nM
- Selectivity Index (CC50/EC90) ([1]; Table 5, monotherapy, or celgosivir in combination with ADV): 11,709
- CC50 [2]: 2.34 ± 0.089 mM
